Experimental findings from patent publication US20260034192A1 (University of Saskatchewan, priority 2022, published 2026) are described below.

Where “and” joins values, the source holds several entries; their conditions need not be identical. Equal values may be shown once. Marks after values point to notes of the source that are not given here. Ends that are not written are not given here.

Holding throughout (type): in vivo, cattle
One assay relates to mature Angus heifers. Kind of assay: Cetrorelix versus estradiol benzoate synchronization protocol with AI, random day of cycle (Example 7). How it is done: This experiment was conducted on 38 mature Angus heifers at the Federal University of Santa Maria in Brazil. Heifers on a random day of the cycle (defined as Day 0) were divided into 2 groups (n=19 per group) and treated with a single i/m injection of 3 mg cetrorelix or with estradiol benzoate (1 mg i/m). A progesterone-releasing device (CIDR) was placed in the vagina of heifers at this time. Eight days after the cetrorelix or estradiol treatments, heifers were given 500 ug cloprostenol (prostaglandin analog) i/m injections and the CIDR device was removed. […] Heifers were given 250 ug gonadorelin acetate (GnRH analog) i/m injection at the time of artificial insemination. […] Pregnancy diagnosis was done 29-30 days after artificial insemination.

Assay [1] has as its system Brahman x Angus cross beef post-partum cows. As to the kind of experiment: Field trial of fixed-time AI after cetrorelix versus estradiol protocol (Example 8). How it is done:
This field trial was conducted by a faculty member of the Federal University of Santa Maria at a client beef farm in Brazil in December 2022. A total of 216 Brahman x Angus cross beef post-partum cows were used for this experiment. Cows were divided into two treatment groups ([…]) and were either given cetrorelix 3 mg i/m or estradiol benzoate on a random day of the cycle (defined as Day 0). An intravaginal progesterone device (CIDR) was placed in all cows on Day 0. The CIDR devices were removed on Day 8 and animals were given prostaglandin F2a analog and equine choriogonadotropin (eCG). Fixed-time artificial insemination was done 54 hrs after CIDR removal and animals were given GnRH at this time. Pregnancy diagnosis was performed on Day 30 after artificial insemination. Transrectal ultrasound examinations were performed on Day 0, Day 8, Day 10 and Day 40.

For assay [2], the system named is Hereford crossbred heifers. Kind of assay: Cetrorelix pre-treatment before kisspeptin-10 in low-progesterone heifer model (Example 1). As to conditions: for Ovulation rate after treatments: number of heifer/total: extant dominant follicle. The method, then: Methods: The human Kisspeptin-10 (hKP-10) peptide (YNWNSFGLRF-NH2; SEQ ID NO: 1) was custom synthetized at >95% of purity (MW: 1318.44 g/mol) by GenScript USA Inc, Piscataway, NJ, USA. The sequence is based on the predicted C-terminal region (112-121-NH2) of human metastin (Gen Bank accession #AY117143) and has been previously used in cattle. The peptide was previously tested for solubility and was dissolved in ultrapure water at 10 mg/mL.
The heifers were maintained in outdoor pens at the University of Saskatchewan Goodale Research Farm (52° north and 106° west). Heifers were fed barley silage and had hay and water ad libitum. A mineral salt block was available to heifers throughout the study period. All procedures were performed in accordance with Canadian Council on Animal Care and were approved by the University of Saskatchewan Protocol Review Committee.
Immediately after ultrasound examination, heifers were given PGF2a twice at an interval of 12-hours. The low-progesterone bovine model described previously (Leonardi et al. 2019) was used to test the hypothesis. Briefly, the ovaries were examined daily by ultrasonography to detect ovulation. Three days after ovulation, follicles ≥5 mm in diameter in both ovaries were ablated by transvaginal ultrasound-guided follicle aspiration, inducing the emergence of new follicular wave 1.5 days after the procedure (Bergfelt et al. 1994). After follicular ablation, a progesterone device was placed in the vagina (CIDR; Zoetis). The day of wave emergence (Day 0) was defined as the day when the follicle of wave was first recorded (4 to 5 mm in diameter) with concurrent increase in diameter. Heifers were given PGF2α im on Days 3.5 and 4 (i.e., 8 and 8.5 days after ovulation) to cause luteolysis, however, the CIDR devices were left in place until Day 12 to maintain a low-progesterone milieu sufficient to prevent spontaneous ovulation. On Day 6, an indwelling jugular catheter was placed as described (Bergfelt et al. 1997) and heifers were assigned randomly to three groups (n=5 per group): 1) 3 iv doses of 15 mg human kisspeptin-10 at 1 h intervals (Kp10 group), 2) pretreatment with single im dose of Cetrorelix acetate (20 μg/Kg of body weight, GnRH antagonist—Sigma #C5249 diluted in 5% D-Manitol w/v, Sigma #M4125) followed 3 h later with 3 iv doses of 15 mg human kisspeptin-10 at 1 h intervals (Cetrorelix group), or 3) 3 iv doses of normal saline at 1 h intervals (Control group). Following treatment (on Day 6), ovarian ultrasound examinations were performed daily until the end of the experiment to detect ovulation of the extant dominant follicle (i.e., dominant follicle present at the time of treatment) or of the dominant follicle originating from a subsequent wave. The progesterone device was withdrawn on Day 12 (i.e., thirteen days after insertion) and ultrasound examinations were continued until ovulation was detected.
Blood samples and hormone assays: Serial blood samples on the day of treatment were collected at 15 minute intervals from −30 to 150 min (0 min=time of first hKP-10 or saline injection) using the indwelling jugular catheter. All blood samples were collected in heparinized tubes (Vacutainer, BD, Franklin Lakes NJ, USA). Immediately after sampling, tubes were centrifuged at 1,500×g for 15 min, and plasma was separated and stored at −20° C.
The plasma samples from both experiments were analyzed for LH and progesterone concentration at the University of Wisconsin (Madison, WI, USA) in Dr O. J. Ginther's Research Laboratory. Plasma LH concentrations were measured with a validated radioimmunoassay for cattle (Bolt et al. 1990) with modifications as reported Ginther et al. 1999). Briefly, LH concentrations were measured in duplicate using USDA-bLH-B-6 for ^125I-iodination and for preparing reference standards, and USDA-309-684P as the primary antibody (National Hormone and Pituitary Program, Torrance, CA, USA). […]

Setting [3] is: 3 mg cetrorelix or 1 mg estradiol benzoate i/m.
The mark [4] stands for this setting: 30 days after fixed-time artificial insemination.
Where [5] appears, read: Day 6 of wave, low progesterone, Kp10 3 x 15 mg iv, Cetrorelix 20 μg/Kg im 3 h before Kp10.
Setting [6] is: Kp10 3 x 15 mg iv, Cetrorelix 20 μg/Kg im 3 h before Kp10.

With `C[C@]12CC[C@@H]3c4ccc(OC(=O)c5ccccc5)cc4CC[C@H]3[C@@H]1CC[C@@H]2O` [Estradiol benzoate, estradiol benzoate], in the assay on mature Angus heifers (setting [3]), the “Pregnant/Double AI” value is reported as 7/12; the “Pregnant/Double AI, percent” value amounted to 58%; the “Pregnant/Single AI” value was 6/7; the “Pregnant/Single AI, percent” value is given as 86%. The “Pregnant/Total, percent (pregnancy rate)” value with mature Angus heifers (random day of cycle, 3 mg cetrorelix i/m or 1 mg estradiol benzoate i/m, CIDR 8 days) turned out to be 68%. Moreover, the Pregnant/Total in the assay on mature Angus heifers (random day of cycle, 3 mg cetrorelix i/m or 1 mg estradiol benzoate i/m, CIDR 8 days, PGF, GnRH at AI) is reported as 13/19. In addition, in assay [1] (setting [4]), the “Conception rate: Percent” value turned out to be 45.6% and the “Conception rate: Pregnant/AI” value was 48/106*. For the same compound, the “Conception rate: Percent” value in assay [1] (30 days after fixed-time artificial insemination, listed as estradiol) is listed as 45.6%. The “Size of the dominant follicle on Day 8 (at PGF)” value in assay [1] (cetrorelix 3 mg i/m or estradiol benzoate on Day 0, CIDR removal Day 8, in mm) is listed as 8.60 ± 0.39. Moreover, the “Size of the dominant follicle on Day 10 (at AI)” value in assay [1] (cetrorelix 3 mg i/m or estradiol benzoate on Day 0, in mm) was 11.38 ± 0.56.

With “Kp10: human Kisspeptin-10 (hKP-10) peptide YNWNSFGLRF-NH2; SEQ ID NO: 1 (listed as Homo sapiens)”, in assay [2] (Day 6 of wave, low progesterone, Kp10 3 x 15 mg iv), the “Interval between treatment and ovulation (hours after treatment)” value came to 48 h. Also, in assay [2] (setting [5]), the “Dominant follicle diameter 24 h after treatment” value came out at 12.24 ± 0.89 mm; the “Dominant follicle diameter 48 h after treatment” value turned out to be 16.51 mm; the “Dominant follicle diameter at time of treatment” value worked out at 11.34 ± 0.91 mm; the “Ovulation rate after treatments: number of heifer/total” value was 4 of 5 and 4/5^a. Further, in assay [2] (Day 6 of wave, low progesterone, Kp10 3 x 15 mg iv, Cetrorelix single im 20 μg/Kg 3 h before Kp10), the “Emergence of a new follicular wave after treatment” value came to 2.75 ± 0.75 days. Further, the “Day of ovulation of new dominant follicles after CIDR removal (Day 12)” value in assay [2] (Day of follicular wave) is 15. Also, in assay [2] (setting [6]), the “Heifers in which a new wave emergence occurred” value is reported as 4 of 5, the “Number of ovulations after CIDR removal on Day 12: Extant dominant follicle” value is listed as 1/1, the “Number of ovulations after CIDR removal on Day 12: New dominant follicle” value is recorded as 4/4 and the “Plasma LH concentration / kisspeptin-induced LH surge” value is given as “higher plasma LH concentrations”. Moreover, the “Ovulation rate after treatments: number of heifer/total” value in assay [2] (Day 6 of wave, low progesterone, Kp10 3 x 15 mg iv, Cetrorelix 20 μg/Kg im 3 h before Kp10, listed as kisspeptin) is listed as 4 out of 5.
